Changes are numbered by the printed parent chain. Where a SMILES comes first, the peptide text is derived from it.
Key:
[1] = target: T1, hTAS1R2 + hTAS1R3 S640A^3.32 (Homo sapiens, UniProt Q7RTX0+Q8TE23, S640A); test: Calcium response (FLIPR), hTAS1R3 mutant coexpressed with hTAS1R2; format: cell-based; details: variant S640A^3.32; for Emax: read-out: maximal signal (% of wt)
T1 construct: expressed in transfected cells; host or cells: HEK293T cells stably expressing G16Gust44
T1 sequence (Q8TE23 20-839): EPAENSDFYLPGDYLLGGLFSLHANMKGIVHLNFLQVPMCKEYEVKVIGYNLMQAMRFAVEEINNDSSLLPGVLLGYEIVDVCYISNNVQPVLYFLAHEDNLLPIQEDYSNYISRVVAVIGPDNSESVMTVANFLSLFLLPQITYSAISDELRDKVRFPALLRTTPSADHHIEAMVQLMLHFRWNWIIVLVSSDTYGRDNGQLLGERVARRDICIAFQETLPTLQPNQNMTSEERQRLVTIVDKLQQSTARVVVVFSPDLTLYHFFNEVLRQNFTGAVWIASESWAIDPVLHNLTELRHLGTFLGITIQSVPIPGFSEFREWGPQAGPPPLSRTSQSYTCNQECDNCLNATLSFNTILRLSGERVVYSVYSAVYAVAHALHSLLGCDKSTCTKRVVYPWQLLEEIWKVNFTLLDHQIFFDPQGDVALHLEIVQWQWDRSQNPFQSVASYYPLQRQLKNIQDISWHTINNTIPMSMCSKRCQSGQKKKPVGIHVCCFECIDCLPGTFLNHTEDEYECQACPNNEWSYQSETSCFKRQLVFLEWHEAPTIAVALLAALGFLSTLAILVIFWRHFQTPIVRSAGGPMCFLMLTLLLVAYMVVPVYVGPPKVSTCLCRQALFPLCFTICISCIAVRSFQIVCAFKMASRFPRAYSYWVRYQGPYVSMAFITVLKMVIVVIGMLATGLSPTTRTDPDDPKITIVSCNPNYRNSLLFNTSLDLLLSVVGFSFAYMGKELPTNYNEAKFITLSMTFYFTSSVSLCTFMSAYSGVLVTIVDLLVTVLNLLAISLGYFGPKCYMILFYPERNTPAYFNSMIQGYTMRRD
T1 sequence (Q7RTX0 21-852 S640A): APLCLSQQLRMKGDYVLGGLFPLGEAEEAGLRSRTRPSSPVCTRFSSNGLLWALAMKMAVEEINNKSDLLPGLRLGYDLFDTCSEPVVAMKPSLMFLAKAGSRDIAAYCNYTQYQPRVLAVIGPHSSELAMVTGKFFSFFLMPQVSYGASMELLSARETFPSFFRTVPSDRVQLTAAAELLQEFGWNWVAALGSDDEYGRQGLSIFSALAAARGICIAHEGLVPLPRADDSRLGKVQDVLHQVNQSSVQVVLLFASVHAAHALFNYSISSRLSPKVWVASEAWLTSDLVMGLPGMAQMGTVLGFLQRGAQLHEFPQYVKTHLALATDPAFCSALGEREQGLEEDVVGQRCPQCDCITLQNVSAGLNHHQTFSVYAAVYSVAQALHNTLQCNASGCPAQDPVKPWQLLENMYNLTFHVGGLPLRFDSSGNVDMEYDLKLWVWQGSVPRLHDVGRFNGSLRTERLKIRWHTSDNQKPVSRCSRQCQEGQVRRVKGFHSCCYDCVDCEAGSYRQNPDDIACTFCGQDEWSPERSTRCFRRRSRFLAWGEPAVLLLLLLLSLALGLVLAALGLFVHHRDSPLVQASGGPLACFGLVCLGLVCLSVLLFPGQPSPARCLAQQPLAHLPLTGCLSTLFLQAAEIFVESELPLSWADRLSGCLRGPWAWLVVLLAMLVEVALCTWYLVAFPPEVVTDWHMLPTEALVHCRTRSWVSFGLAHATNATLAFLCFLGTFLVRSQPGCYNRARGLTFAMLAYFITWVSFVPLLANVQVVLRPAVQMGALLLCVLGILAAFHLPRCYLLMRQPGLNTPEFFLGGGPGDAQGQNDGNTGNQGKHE
Method in brief: (§1)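 HEK293T/G16Gust44, transient transfection of HSV-tagged TAS1R2 + TAS1R3 mutants; Fluo4-AM loading 1 h at 24 h; sweet tastants in C1 solution; FLIPR Ca2+ read; ΔF/F, mock-subtracted; ≥3 independent expts in duplicate.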

[2] = target: T2, hTAS1R2 + hTAS1R3 V779A^6.52 (Homo sapiens, UniProt Q7RTX0+Q8TE23, V779A); test: as above; format: cell-based; details: variant V779A^6.52; for Emax: read-out: maximal signal (% of wt)
T2 construct: expressed in transfected cells; host or cells: HEK293T cells stably expressing G16Gust44
T2 sequence (Q8TE23 20-839): T1 sequence (Q8TE23 20-839)
T2 sequence (Q7RTX0 21-852 V779A): T1 sequence (Q7RTX0 21-852 S640A) with A620S, V759A
Method in brief: as §1

Compound | EC50 [1] | Emax [1] | EC50 [2] | Emax [2]
COc1ccc(CCC(=O)c2c(O)cc(O[C@@H]3O[C@H](CO)[C@@H](O)[C@H](O)[C@H]3O[C@@H]3O[C@@H](C)[C@H](O)[C@@H](O)[C@H]3O)cc2O)cc1O [NHDC, neohesperidin dihydrochalcone] | 800 ± 200 µM | 63 ± 18% | 200 ± 100 µM | 88 ± 14%
COC(=O)[C@H](Cc1ccccc1)NC(=O)[C@@H](N)CC(=O)O [aspartame] (HELM PEPTIDE1{D.F.[CO[*:1]]}$$$$V2.0) | 1400 ± 500 µM | 61 ± 40% | 1200 ± 300 µM | 52 ± 10%
